Source: patent US20250049930A1, “PROTAC MOLECULES TARGETING FOXP3 AND USES THEREOF” (CEDARS-SINAI MEDICAL CENTER, priority 2022, published 2025)
Residues, ends and D or L forms follow the SMILES beside them. *: point of attachment. X1 = O=C1CCC(N2C(=O)c3cccc(*)c3C2=O)C(=O)N1; PEG4 = NCCOCCOCCOCCOCCC(=O)O

What was measured:
cereblon = cereblon (Homo sapiens, UniProt Q96SW2); experiment: SPR assay, binary complex; type: binding; conditions: 25° C., binary complex of cereblon and P-FoxP3
Protocol: The SPR assay for ternary complex cooperativity was performed by BOC Sciences who provided the following details: Various concentrations of cereblon were dissolved in water and manually printed onto the 47 nm gold-coated PlexArray Nanocapture Sensor Chip (Plexera Bioscience, Seattle, WA) at 40% humidity. Each concentration was printed in replicate, and each spot contained […] of sample solution. The chip was incubated overnight in 80% humidity at 4° C., and rinsed with 10×PBST for 10 minutes, 1×PBST for 10 minutes, and deionized water twice for 10 minutes. The chip was then blocked with 5% non-fat milk in water overnight, washed as before, and then dried under a stream of nitrogen.
SPR imaging measurements were performed with PlexAray HT (Plexera Bioscience, Seattle, WA, US). Buffers and samples were injected by a non-pulsatile piston pump into the 30 μL flow cell. […] The signal changes after binding and washing (in AU) are recorded as the assay value. Selected protein-grafted regions in the SPR images were analyzed, and the average reflectivity variations of the chosen areas were plotted as a function of time. Real-time binding signals were recorded and analyzed by Data Analysis Module (DAM, Plexera Bioscience, Seattle, WA, US). […]

Tregs = experiment: Treg immunosuppression co-culture assay with mouse splenocytes (CFSE dilution, TNFα); type: cell-based; conditions: mouse CD4+ splenocytes treated 72 hours, co-cultured with effector cells stimulated with αCD3 and αCD28
Protocol: FIGS. 3A-3D depict that PF decreased the immunosuppressive function of Tregs in vitro and decreased tumor growth in mice. To treat Tregs, CD4+ splenocytes were isolated and treated with PF or various controls for 72 hours. To assess the immunosuppressive effects of these cells, they were washed and co-cultured with effector cells, which were stimulated with antibodies to CD3 and CD28 in vitro (FIGS. 3A-3C). CD8 proliferation was measured using a CFSE dilution assay. To assess CD8+ effector cells, CD4 negative splenocytes were CFSE labeled and CFSE dilution was measured in CD8+ cells by flow cytometry (FIG. 3A). In the same experiment, CD8+ lymphocyte activation was assessed by measuring TNFα (FIG. 3B). Also, CD4+ lymphocyte activation was assessed by measuring TNFα (FIG. 3C). Mice tumors were established by injection RENCA cells subcutaneously in the flank of Balb/C mice (5-7 mice per group) (FIG. 3D). 10 days later, mice were treated i.p., twice a week throughout the experiment, with the indicated drugs and tumor growth was monitored. Pomalidomide conjugated to (PEG)4 (PROTAC-control; PC) and P60 served as controls. […]
To assess T cell activation in vitro, single suspension of mouse splenocytes were separated into CD4 positive (+) and negative (−) cells using EasySep Mouse CD4+ selection kit (STEMCELL technologies, Vancouver, BC, Canada). […] To study effector cell function, CD4+ and CD4− cells were cocultured (1.2 ratio) with treated-Treg and stimulated with αCD3 (10 μg/mL) and αCD28 (5 μg/mL) for 3 days; percent of CD4+ or CD8+ cells staining for intracellular FoxP3, CFSE, or TNFα were assessed by flow cytometry (LSR II, BD Biosciences, San Jose, CA 95131).
Tregs play a central role in suppressing and regulating the immune response. […] CD8 proliferation was measured using a CFSE dilution assay. To assess CD8+ effector cells, CD4 negative splenocytes were CFSE labeled and CFSE dilution was measured in CD8+ cells by flow cytometry (FIG. 3A). CD8+ lymphocyte activation was assessed by measuring TNFα (FIG. 3B). Also, CD4+ lymphocyte activation was assessed by measuring TNFα (FIG. 3C). […]

Chain of cereblon (Q96SW2 whole entry): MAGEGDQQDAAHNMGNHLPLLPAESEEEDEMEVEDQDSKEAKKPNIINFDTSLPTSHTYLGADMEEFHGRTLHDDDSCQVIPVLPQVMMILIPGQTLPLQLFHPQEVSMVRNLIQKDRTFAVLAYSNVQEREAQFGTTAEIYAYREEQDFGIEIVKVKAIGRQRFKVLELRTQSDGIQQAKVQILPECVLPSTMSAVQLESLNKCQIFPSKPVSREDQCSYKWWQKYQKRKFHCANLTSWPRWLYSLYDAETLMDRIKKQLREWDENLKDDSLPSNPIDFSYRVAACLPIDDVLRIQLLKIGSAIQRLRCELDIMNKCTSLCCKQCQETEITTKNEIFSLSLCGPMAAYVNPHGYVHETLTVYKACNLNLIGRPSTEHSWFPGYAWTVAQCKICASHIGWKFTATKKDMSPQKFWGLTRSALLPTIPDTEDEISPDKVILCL

Kd (cereblon): 987 nM
Compound: CSCC[C@H](NC(=O)[C@H](C)NC(=O)[C@H](Cc1ccccc1)NC(=O)[C@H](Cc1ccccc1)NC(=O)[C@@H]1CCCN1C(=O)[C@H](Cc1c[nH]c2ccccc12)NC(=O)[C@H](CCSC)NC(=O)[C@H](CCCCN)NC(=O)[C@H](CCCNC(=N)N)NC(=O)[C@H](Cc1ccccc1)NC(=O)[C@H](CO)NC(=O)[C@H](CCC(N)=O)NC(=O)[C@H](Cc1ccccc1)NC(=O)[C@H](CC(=O)O)NC(=O)[C@H](CCCNC(=N)N)NC(=O)CCOCCOCCOCCOCCNc1cccc2c1C(=O)N(C1CCC(=O)NC1=O)C2=O)C(=O)O (stereo partly shown) [PF, Pomalidomide-PEG4-RDFQSFRKMWPFFAM] ({X1-PEG4}-RDFQSFRKMWPFFAM-OH)
suppression of CD4+ effector lymphocyte activation by treated CD4+ cells (TNFα) (Tregs): less capable of suppressing the activation of CD4+ effector lymphocytes
suppression of CD8+ lymphocyte activation by treated CD4+ lymphocytes (TNFα expression) (Tregs): less capable of suppressing
suppression of CD8+ lymphocyte proliferation by treated CD4+ lymphocytes (CFSE dilution) (Tregs): less capable of suppressing
